Experimental data as given in patent US20090036474A1, “Quinazoline derivatives for use against cancer” (priority 2004, published 2009).
pIC50: −log10 of the molar value.

Legend:
PDGFRβ tyrosine kinase = target: T1, PDGFRβ tyrosine kinase (Homo sapiens, UniProt P09619); experiment: In vitro enzyme assay (ELISA), Test (a), PDGFRβ; type: biochemical; settings: ATP 2.8 μM, read-out: IC50 versus PDGFRβ tyrosine kinase
T1 construct: PDGFRα, PDGFRβ and KDR receptor cytoplasmic domains, obtained by expression of recombinant protein in insect cells; purchased Upstate Biotechnology Inc. 14-463; host or cells: Sf9 insect cells
Procedure: (§1) The ability of test compounds to inhibit the phosphorylation of a tyrosine containing polypeptide substrate by the tyrosine kinase enzymes PDGFRα, PDGFRβ and KDR was assessed using conventional ELISA assays. DNA encoding the PDGFRα, PDGFRβ or KDR receptor cytoplasmic domains may be obtained by total gene synthesis (International Biotechnology Lab., 1987, 5(3), 19-25) or by cloning. The DNA fragments may be expressed in a suitable expression system to obtain polypeptide with tyrosine kinase activity. For example, PDGFRα, PDGFRβ and KDR receptor cytoplasmic domains, obtained by expression of recombinant protein in insect cells, can be shown to display intrinsic tyrosine kinase activity. In the case of the VEGF receptor KDR (Genbank Accession No. L04947), a DNA fragment encoding most of the cytoplasmic domain, commencing with methionine 806 and including the termination codon may be cloned into a baculovirus transplacement vector [for example pAcYM1 (see The Baculovirus Expression System: A Laboratory Guide, L. A. King and R. D. Possee, Chapman and Hall, 1992) or pAc360 or pBlueBacHis (available from Invitrogen Corporation)]. This recombinant construct may be co-transfected into insect cells [for example Spodoptera frugiperda 21(Sf21) or Spodoptera frugiperda 9(Sf9)] with viral DNA (for example Pharmingen BaculoGold) to prepare recombinant baculovirus. […]

PDGFRα tyrosine kinase = target: T2, PDGFRα tyrosine kinase (Homo sapiens, UniProt P16234); experiment: In vitro enzyme assay (ELISA), Test (a), PDGFRα; type: biochemical; settings: ATP 14 μM, read-out: IC50 versus PDGFRα tyrosine kinase
T2 construct: PDGFRα, PDGFRβ and KDR receptor cytoplasmic domains, obtained by expression of recombinant protein in insect cells; purchased Upstate Biotechnology Inc. 14-467; host or cells: Sf9 insect cells
Procedure: as §1

T2 sequence (P16234 550-1089 limits assumed): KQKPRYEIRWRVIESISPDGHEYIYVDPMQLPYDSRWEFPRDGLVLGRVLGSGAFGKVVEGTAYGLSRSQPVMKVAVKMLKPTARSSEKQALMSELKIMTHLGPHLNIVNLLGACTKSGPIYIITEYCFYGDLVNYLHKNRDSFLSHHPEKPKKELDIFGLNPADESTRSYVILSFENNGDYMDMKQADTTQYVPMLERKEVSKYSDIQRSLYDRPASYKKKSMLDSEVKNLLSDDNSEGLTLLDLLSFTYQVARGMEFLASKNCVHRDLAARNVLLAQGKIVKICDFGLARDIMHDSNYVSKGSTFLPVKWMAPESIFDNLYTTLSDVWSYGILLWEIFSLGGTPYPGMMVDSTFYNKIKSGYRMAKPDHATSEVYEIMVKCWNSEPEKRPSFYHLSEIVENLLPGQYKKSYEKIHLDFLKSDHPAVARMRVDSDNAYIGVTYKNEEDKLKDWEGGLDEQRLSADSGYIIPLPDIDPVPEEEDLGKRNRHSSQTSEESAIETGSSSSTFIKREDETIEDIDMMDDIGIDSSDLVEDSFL
T1 sequence (P09619 554-1106 limits assumed): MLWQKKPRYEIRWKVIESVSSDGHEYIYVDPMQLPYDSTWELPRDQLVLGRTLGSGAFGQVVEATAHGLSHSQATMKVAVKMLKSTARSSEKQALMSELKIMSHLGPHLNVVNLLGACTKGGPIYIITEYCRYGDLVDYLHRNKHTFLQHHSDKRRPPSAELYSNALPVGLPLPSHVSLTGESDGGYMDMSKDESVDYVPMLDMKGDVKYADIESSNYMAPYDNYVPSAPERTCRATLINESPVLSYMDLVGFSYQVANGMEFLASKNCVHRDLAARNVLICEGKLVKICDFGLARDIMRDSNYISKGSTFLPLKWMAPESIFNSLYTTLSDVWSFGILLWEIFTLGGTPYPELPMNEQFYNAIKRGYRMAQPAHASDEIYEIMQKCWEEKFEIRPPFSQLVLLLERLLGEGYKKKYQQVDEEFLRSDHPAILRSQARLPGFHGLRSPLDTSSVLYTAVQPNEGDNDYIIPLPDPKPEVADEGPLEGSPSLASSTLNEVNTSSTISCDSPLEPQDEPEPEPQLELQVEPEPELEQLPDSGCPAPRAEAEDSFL

## COc1cc2ncnc(Oc3cnn(CC(=O)Nc4cccc5c4OCO5)c3)c2cc1OC [Example 2, N-(2,3-methylenedioxyphenyl)-2-[4-(6,7-dimethoxyquinazolin-4-yloxy)pyrazol-1-yl]acetamide]
PDGFRβ tyrosine kinase
  pIC50: ~8.00
PDGFRα tyrosine kinase
  pIC50: ~7.00
